Measurements taken from PubChem BioAssay (NCI).
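Protocol summary: plate cells (96-well), add compound at 5 concentrations, incubate 48 h, interpolate endpoints linearly. GI50 = concentration required for 50% inhibition of growth. TGI marks complete inhibition of growth.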

Legend:
Assay in all cases: NCI tumour cell line growth inhibition, 48 h
HCT-116 colon = tested on: HCT-116 colon
SN12C renal = tested on: SN12C renal
PC-3 prostate = tested on: PC-3 prostate
IGROV1 ovarian = tested on: IGROV1 ovarian
786-0 renal = tested on: 786-0 renal
NCI-H522 lung = tested on: NCI-H522 lung
NCI/ADR-RES ovarian = tested on: NCI/ADR-RES ovarian
KM12 colon = tested on: KM12 colon
NCI-H460 lung = tested on: NCI-H460 lung
SW-620 colon = tested on: SW-620 colon
HOP-62 NSCLC = tested on: HOP-62 NSCLC
MALME-3M melanoma = tested on: MALME-3M melanoma
SF-295 CNS = tested on: SF-295 CNS
ACHN renal = tested on: ACHN renal
MDA-MB-231 breast = tested on: MDA-MB-231 breast
OVCAR-3 ovarian = tested on: OVCAR-3 ovarian
SR leukemia = tested on: SR leukemia
OVCAR-4 ovarian = tested on: OVCAR-4 ovarian
HOP-92 NSCLC = tested on: HOP-92 NSCLC
HCC-2998 colon = tested on: HCC-2998 colon
SF-539 CNS = tested on: SF-539 CNS
UACC-62 melanoma = tested on: UACC-62 melanoma
BT-549 breast = tested on: BT-549 breast
NCI-H23 lung = tested on: NCI-H23 lung
SNB-75 CNS = tested on: SNB-75 CNS
A549 NSCLC = tested on: A549 NSCLC
MCF7 breast = tested on: MCF7 breast
SK-MEL-5 melanoma = tested on: SK-MEL-5 melanoma
HS 578T breast = tested on: HS 578T breast
SK-MEL-2 melanoma = tested on: SK-MEL-2 melanoma
SF-268 CNS = tested on: SF-268 CNS
RPMI-8226 leukemia = tested on: RPMI-8226 leukemia
OVCAR-5 ovarian = tested on: OVCAR-5 ovarian
HT29 colon = tested on: HT29 colon
RXF 393 renal = tested on: RXF 393 renal
TK-10 renal = tested on: TK-10 renal
CCRF-CEM leukemia = tested on: CCRF-CEM leukemia
DU-145 prostate = tested on: DU-145 prostate
HCT-15 colon = tested on: HCT-15 colon
M14 melanoma = tested on: M14 melanoma
T-47D breast = tested on: T-47D breast
HL-60(TB) leukemia = tested on: HL-60(TB) leukemia
UO-31 renal = tested on: UO-31 renal
MOLT-4 leukemia = tested on: MOLT-4 leukemia
COLO 205 colon = tested on: COLO 205 colon
K-562 leukemia = tested on: K-562 leukemia
SNB-19 CNS = tested on: SNB-19 CNS
EKVX NSCLC = tested on: EKVX NSCLC
MDA-MB-435 = tested on: MDA-MB-435
NCI-H226 lung = tested on: NCI-H226 lung
U251 CNS = tested on: U251 CNS
LOX IMVI melanoma = tested on: LOX IMVI melanoma
UACC-257 melanoma = tested on: UACC-257 melanoma
A498 renal = tested on: A498 renal
SK-MEL-28 melanoma = tested on: SK-MEL-28 melanoma
SK-OV-3 ovarian = tested on: SK-OV-3 ovarian
OVCAR-8 ovarian = tested on: OVCAR-8 ovarian
CAKI-1 renal = tested on: CAKI-1 renal

COc1ccccc1/C=C/C(=O)c1ccc(Nc2nc(Nc3ccc(F)cc3)nc(Nc3ccc(F)cc3)n2)cc1
GI50 (HCT-116 colon): 4.58 µM | TGI (HCT-116 colon): > 100 µM | GI50 (SN12C renal): 51.2 µM | TGI (SN12C renal): > 100 µM | GI50 (PC-3 prostate): 5.49 µM | TGI (PC-3 prostate): > 100 µM | GI50 (IGROV1 ovarian): 22.6 µM | TGI (IGROV1 ovarian): > 100 µM | GI50 (786-0 renal): 2.85 µM | TGI (786-0 renal): 14.9 µM | GI50 (NCI-H522 lung): 23 µM | TGI (NCI-H522 lung): > 100 µM | GI50 (NCI/ADR-RES ovarian): 13 µM | TGI (NCI/ADR-RES ovarian): > 100 µM | GI50 (KM12 colon): 7.67 µM | TGI (KM12 colon): > 100 µM | GI50 (NCI-H460 lung): 9.38 µM | TGI (NCI-H460 lung): > 100 µM | GI50 (SW-620 colon): 6.49 µM | TGI (SW-620 colon): > 100 µM | GI50 (HOP-62 NSCLC): 16.3 µM | TGI (HOP-62 NSCLC): 77.6 µM | GI50 (MALME-3M melanoma): 20.1 µM | TGI (MALME-3M melanoma): 46.5 µM | GI50 (SF-295 CNS): 14.4 µM | TGI (SF-295 CNS): 98.5 µM | GI50 (ACHN renal): 25.2 µM | TGI (ACHN renal): > 100 µM | GI50 (MDA-MB-231 breast): 25.8 µM | TGI (MDA-MB-231 breast): > 100 µM | GI50 (OVCAR-3 ovarian): 22.2 µM | TGI (OVCAR-3 ovarian): > 100 µM | GI50 (SR leukemia): 4.34 µM | TGI (SR leukemia): > 100 µM | GI50 (OVCAR-4 ovarian): 65.3 µM | TGI (OVCAR-4 ovarian): > 100 µM | GI50 (HOP-92 NSCLC): 7.24 µM | TGI (HOP-92 NSCLC): 46.5 µM | GI50 (HCC-2998 colon): 25.2 µM | TGI (HCC-2998 colon): > 100 µM | GI50 (SF-539 CNS): 1.73 µM | TGI (SF-539 CNS): 17.6 µM | GI50 (UACC-62 melanoma): 55.5 µM | TGI (UACC-62 melanoma): > 100 µM | GI50 (BT-549 breast): 13.5 µM | TGI (BT-549 breast): > 100 µM | GI50 (NCI-H23 lung): 18.9 µM | TGI (NCI-H23 lung): > 100 µM | GI50 (SNB-75 CNS): 50.6 µM | TGI (SNB-75 CNS): > 100 µM | GI50 (A549 NSCLC): 10.9 µM | TGI (A549 NSCLC): > 100 µM | GI50 (MCF7 breast): 5.45 µM | TGI (MCF7 breast): > 100 µM | GI50 (SK-MEL-5 melanoma): 10.5 µM | TGI (SK-MEL-5 melanoma): 40 µM | GI50 (HS 578T breast): 8.29 µM | TGI (HS 578T breast): 71.1 µM | GI50 (SK-MEL-2 melanoma): 25.2 µM | TGI (SK-MEL-2 melanoma): > 100 µM | GI50 (SF-268 CNS): 45.7 µM | TGI (SF-268 CNS): > 100 µM | GI50 (RPMI-8226 leukemia): 3.03 µM | TGI (RPMI-8226 leukemia): 16.3 µM | GI50 (OVCAR-5 ovarian): 51.9 µM | TGI (OVCAR-5 ovarian): > 100 µM | GI50 (HT29 colon): 15.8 µM | TGI (HT29 colon): > 100 µM | GI50 (RXF 393 renal): 2.49 µM | TGI (RXF 393 renal): 9.37 µM | GI50 (TK-10 renal): 48.6 µM | TGI (TK-10 renal): > 100 µM | GI50 (CCRF-CEM leukemia): 5.6 µM | TGI (CCRF-CEM leukemia): > 100 µM | GI50 (DU-145 prostate): 55.9 µM | TGI (DU-145 prostate): > 100 µM | GI50 (HCT-15 colon): 6.57 µM | TGI (HCT-15 colon): > 100 µM | GI50 (M14 melanoma): 25.5 µM | TGI (M14 melanoma): 86.7 µM | GI50 (T-47D breast): 8.01 µM | TGI (T-47D breast): > 100 µM | GI50 (HL-60(TB) leukemia): 3.77 µM | TGI (HL-60(TB) leukemia): > 100 µM | GI50 (UO-31 renal): 9.52 µM | TGI (UO-31 renal): > 100 µM | GI50 (MOLT-4 leukemia): 6.13 µM | TGI (MOLT-4 leukemia): 97.8 µM | GI50 (COLO 205 colon): 2.55 µM | TGI (COLO 205 colon): 55.1 µM | GI50 (K-562 leukemia): 9.94 µM | TGI (K-562 leukemia): > 100 µM | GI50 (SNB-19 CNS): 74.2 µM | TGI (SNB-19 CNS): > 100 µM | GI50 (EKVX NSCLC): 38.1 µM | TGI (EKVX NSCLC): > 100 µM | GI50 (MDA-MB-435): 19.4 µM | TGI (MDA-MB-435): 90.7 µM | GI50 (NCI-H226 lung): 6.61 µM | TGI (NCI-H226 lung): > 100 µM | GI50 (U251 CNS): 9.8 µM | TGI (U251 CNS): > 100 µM | GI50 (LOX IMVI melanoma): 21.1 µM | TGI (LOX IMVI melanoma): > 100 µM | GI50 (UACC-257 melanoma): 22 µM | TGI (UACC-257 melanoma): 66.6 µM | GI50 (A498 renal): 13.3 µM | TGI (A498 renal): 47.2 µM | GI50 (SK-MEL-28 melanoma): 33.6 µM | TGI (SK-MEL-28 melanoma): > 100 µM | GI50 (SK-OV-3 ovarian): 69.7 µM | TGI (SK-OV-3 ovarian): > 100 µM | GI50 (OVCAR-8 ovarian): 9.4 µM | TGI (OVCAR-8 ovarian): > 100 µM | GI50 (CAKI-1 renal): > 100 µM | TGI (CAKI-1 renal): > 100 µM
